The values that follow are results of earlier work, collected in publication PMC9898036, “VIP152 is a selective CDK9 inhibitor with pre-clinical in vitro and in vivo efficacy in chronic lymphocytic leukemia” (Leukemia, 2022).

This data set relates to CLL patients. To be noted: cited from earlier work.

Regarding `CCc1cnn2c(NCc3ccc[n+]([O-])c3)cc(N3CCCC[C@H]3CCO)nc12` [dinaciclib], the “patients having a partial response” value is 64%.
